No end group written: not given here.
B1: thaumatin (protein)
chain: ATFEIVNRCSYTVWAAASKGDAALDAGGRQLNSGESWTINVEPGTKGGKIWARTDCYFDDSGSGICKTGDCGGLLRCKRFGRPPTTLAEFSLNQYGKDYIDISNIKGFNVPMDFSPTTRGCRGVRCAADIVGQCPAKLKAPGGGCNDACTVFQTSEYCCTTGKCGPTEYSRFFKRLCPDAFSYVLDKPTTVTCPGSSNYRVTFCPTA
modifications: Eight disulfides
notes: sweet-tasting plant protein, E957

Molecular target: T1, human TAS1R2-R317P/TAS1R3-WT (Homo sapiens, UniProt Q7RTX0+Q8TE23, R317P)
T1 construct: expressed in transfected cells; host or cells: HEK293T-Gα16gust44
T1 sequence (Q8TE23 20-839 R317P): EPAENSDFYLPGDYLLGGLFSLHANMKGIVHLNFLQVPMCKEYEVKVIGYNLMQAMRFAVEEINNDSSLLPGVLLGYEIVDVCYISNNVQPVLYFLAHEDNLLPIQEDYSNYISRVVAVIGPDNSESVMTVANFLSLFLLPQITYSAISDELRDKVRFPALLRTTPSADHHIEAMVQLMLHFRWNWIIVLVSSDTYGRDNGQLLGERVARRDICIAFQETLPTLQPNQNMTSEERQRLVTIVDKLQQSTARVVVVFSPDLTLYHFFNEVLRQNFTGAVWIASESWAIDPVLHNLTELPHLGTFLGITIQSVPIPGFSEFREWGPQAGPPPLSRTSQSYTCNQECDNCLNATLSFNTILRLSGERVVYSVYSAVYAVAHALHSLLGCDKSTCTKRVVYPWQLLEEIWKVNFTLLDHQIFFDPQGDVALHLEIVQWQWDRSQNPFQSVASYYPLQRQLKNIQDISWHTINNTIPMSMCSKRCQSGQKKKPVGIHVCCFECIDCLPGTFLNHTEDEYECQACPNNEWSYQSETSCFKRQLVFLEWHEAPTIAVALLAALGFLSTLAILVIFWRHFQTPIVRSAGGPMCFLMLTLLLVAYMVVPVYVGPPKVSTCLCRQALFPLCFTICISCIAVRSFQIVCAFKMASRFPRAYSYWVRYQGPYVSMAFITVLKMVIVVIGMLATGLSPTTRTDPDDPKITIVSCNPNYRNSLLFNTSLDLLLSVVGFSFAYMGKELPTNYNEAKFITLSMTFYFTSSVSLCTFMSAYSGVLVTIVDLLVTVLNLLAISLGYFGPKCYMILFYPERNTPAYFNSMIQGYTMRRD
T1 sequence (Q7RTX0 21-852): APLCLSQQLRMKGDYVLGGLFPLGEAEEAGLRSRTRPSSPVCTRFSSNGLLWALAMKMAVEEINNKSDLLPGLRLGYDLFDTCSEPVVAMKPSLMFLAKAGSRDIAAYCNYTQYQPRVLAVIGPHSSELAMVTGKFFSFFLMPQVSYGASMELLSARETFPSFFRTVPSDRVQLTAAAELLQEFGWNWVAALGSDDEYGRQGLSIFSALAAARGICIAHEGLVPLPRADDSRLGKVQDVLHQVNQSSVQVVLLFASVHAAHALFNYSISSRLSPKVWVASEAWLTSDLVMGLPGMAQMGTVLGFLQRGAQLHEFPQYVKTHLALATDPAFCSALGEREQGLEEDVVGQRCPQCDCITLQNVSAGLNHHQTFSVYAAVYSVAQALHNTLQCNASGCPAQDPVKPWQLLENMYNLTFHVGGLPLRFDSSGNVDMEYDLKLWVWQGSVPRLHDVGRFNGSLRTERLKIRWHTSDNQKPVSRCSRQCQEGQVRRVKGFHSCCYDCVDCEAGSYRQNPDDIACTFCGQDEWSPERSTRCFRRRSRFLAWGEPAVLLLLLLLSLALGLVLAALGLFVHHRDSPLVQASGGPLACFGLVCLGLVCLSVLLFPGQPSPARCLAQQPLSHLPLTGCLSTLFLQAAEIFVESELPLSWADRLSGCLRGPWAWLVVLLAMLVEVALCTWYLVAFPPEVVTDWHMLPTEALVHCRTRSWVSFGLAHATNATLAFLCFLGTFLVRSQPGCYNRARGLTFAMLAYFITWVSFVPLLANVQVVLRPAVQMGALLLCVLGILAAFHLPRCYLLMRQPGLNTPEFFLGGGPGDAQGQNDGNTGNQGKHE
Assay: Calcium mobilisation assay, TAS1R2 variant R317P with TAS1R3-WT
Format: cell-based
Conditions: for Max ΔF/F0: maximal signal amplitude
Source text: The coding sequences for TAS1R2 and TAS1R3 were commercially synthesised, and the human codon was optimised for expression in human cells. The coding sequences of human TAS1R2 and TAS1R3 were subcloned and inserted into the mammalian expression vectors pcDNA6/myc-HisA and pcDNA4/myc-HisA (Invitrogen; Thermo Fisher Scientific; Illkirch, France) between the EcoRI and NotI restriction sites, generating the plasmids pcDNA6-TAS1R2 and pcDNA4-TAS1R3, respectively. To increase protein expression in mammalian cells, an upstream start codon was used, which was a sequence called MAX, corresponding to the QBI SP163 element also described in pcDNA4-HisMax (Invitrogen; Thermo Fisher Scientific; Illkirch, France). To measure the expression level of the receptor by immunohistochemistry, we used the FLAG sequence ([…]) in the C-terminal position, which encodes the FLAG tag epitope. SNP variants of TAS1R2 and TAS1R3 were constructed based on […], respectively, using site-directed mutagenesis (Genewiz; Leipzig, Germany).
The HEK293T cells were kindly provided by Jay P. Slack (Givaudan Flavors Corporation; Cincinnati, OH, USA). HEK293T cells stably transfected with Gα16gust44 [43, 67] were seeded in poly-D-lysine-coated clear-bottom black 96-well plates (0.35 × 10^5 cells/well) in high-glucose DMEM supplemented with 2 mM GlutaMAX, 10% dialysed foetal bovine serum with penicillin/streptomycin and G418 (400 μg/mL) at 37 °C and 6.3% CO2 in a humidified atmosphere as previously reported. […] As a negative control, HEK293T cells were mock-transfected with the empty expression vector. After a further 24 h of incubation, the HEK293T cells were washed with C1 buffer (130 mM NaCl, 5 mM KCl, 10 mM HEPES pH 7.4 and 2 mM CaCl2). The 96-well plates containing the cells were then stimulated with sweet-tasting compounds. […] Different concentration ranges were tested depending on the sweet compound injected. The Ca^2+ changes were expressed as fractional changes in fluorescent light intensity: ΔF/F = (F − F0)/F0, where F was the fluorescent light intensity at each point, and F0 was the value of emitted fluorescent light prior to stimulus application. To calculate dose–response relationships, the changes in fluorescence upon stimulus application were averaged, mock-subtracted and baseline-corrected. The dose–response data obtained were adjusted using a 4-parameter logistic equation. The half-maximal effective concentrations (EC50 values) and maximal signal amplitudes were calculated using SigmaPlot software (version 15.0) (Systat Software; San Jose, CA, USA).
For in vitro calcium mobilisation assay performed on hTAS1R2-SNPs, hTAS1R3-SNPs and mTAS1R3-I60T, 6 to 7 concentrations were tested for each sweet compound, plus buffer alone. All concentration–receptor combinations were measured in duplicate, and each experiment was repeated at least 4 times (8 wells/concentration). Results were expressed for each concentration as ΔF/F mean ± SEM and represented as dose–response curves.

Molecule	EC50	R1 = Variant EC50/WT EC50	Max ΔF/F0
OC[C@H]1O[C@H](O[C@]2(CCl)O[C@H](CCl)[C@@H](O)[C@@H]2O)[C@H](O)[C@@H](O)[C@H]1Cl [Sucralose]	98 ± 19 µM	1.1	0.76 ± 0.06
C[C@H](CC[C@@H](O[C@@H]1O[C@H](CO[C@@H]2O[C@H](CO)[C@@H](O)[C@H](O)[C@H]2O)[C@@H](O)[C@H](O)[C@H]1O[C@@H]1O[C@H](CO)[C@@H](O)[C@H](O)[C@H]1O)C(C)(C)O)[C@H]1CC[C@@]2(C)[C@@H]3CC=C4[C@@H](CC[C@H](O[C@@H]5O[C@H](CO[C@@H]6O[C@H](CO)[C@@H](O)[C@H](O)[C@H]6O)[C@@H](O)[C@H](O)[C@H]5O)C4(C)C)[C@]3(C)[C@H](O)C[C@]12C [Mogroside V, mogroside V]	27.9 ± 2.5 µM	1.6	1.51 ± 0.05
COC(=O)[C@H](Cc1ccccc1)NC(=O)[C@H](CC(=O)O)NCCC(C)(C)C [Neotame]	0.86 ± 0.16 µM	1.0	0.63 ± 0.04
brazzein (QDKCKKVYENYPVSKCQLANQCNYDCKLDKHARSGECFYDEKRNLQCICDYCEY; ends and bridges not checked; cysteine pairing not given here; UniProt P56552 1-54, looked up) [sweet-tasting protein obtained by recombinant production using the yeast Pichia pastoris]		2.5	0.91 ± 0.02
C=C(C)[C@@H]1CC=C(/C=N/O)CC1 [Perillartine, perillartine]	35.2 ± 2.2 µM	2.0	1.16 ± 0.03
CC1=CC(=O)NS(=O)(=O)O1 [Acesulfame K, acesulfame K]	685 ± 41 µM	1.0	0.42 ± 0.01
C=C1C[C@@]23CC[C@H]4[C@@](C)(CCC[C@@]4(C)C(=O)O[C@@H]4O[C@H](CO)[C@@H](O)[C@H](O[C@@H]5O[C@H](CO)[C@@H](O)[C@H](O)[C@H]5O)[C@H]4O[C@@H]4O[C@H](CO)[C@@H](O)[C@H](O)[C@H]4O)[C@@H]2CC[C@]1(O[C@@H]1O[C@H](CO)[C@@H](O)[C@H](O[C@@H]2O[C@H](CO)[C@@H](O)[C@H](O)[C@H]2O)[C@H]1O[C@@H]1O[C@H](CO)[C@@H](O)[C@H](O)[C@H]1O)C3 [Rebaudioside M, rebaudioside M]	26.9 ± 0.5 µM	1.6	1.19 ± 0.01
O=S(=O)(O)NC1CCCCC1 [Cyclamate, cyclamate]	2860 ± 62 µM		
COc1ccc(CCC(=O)c2c(O)cc(O[C@@H]3O[C@H](CO)[C@@H](O)[C@H](O)[C@H]3O[C@@H]3O[C@@H](C)[C@H](O)[C@@H](O)[C@H]3O)cc2O)cc1O [NHDC, neohesperidin dihydrochalcone]	171 ± 26.2 µM	2.2	0.58 ± 0.04
thaumatin		2.5	0.42 ± 0.01
B1	18.9 ± 0.7 µM		

Source: publication PMC11945486, “TAS1R2/TAS1R3 Single-Nucleotide Polymorphisms Affect Sweet Taste Receptor Activation by Sweeteners: The SWEET Project” (Nutrients, 2025)
